pIC50: −log10 of the molar value. Where a name gives a salt, the structure may show the parent alone.

Rho-associated protein kinase 2, sequence (O75116 whole entry, the tested form may be a part): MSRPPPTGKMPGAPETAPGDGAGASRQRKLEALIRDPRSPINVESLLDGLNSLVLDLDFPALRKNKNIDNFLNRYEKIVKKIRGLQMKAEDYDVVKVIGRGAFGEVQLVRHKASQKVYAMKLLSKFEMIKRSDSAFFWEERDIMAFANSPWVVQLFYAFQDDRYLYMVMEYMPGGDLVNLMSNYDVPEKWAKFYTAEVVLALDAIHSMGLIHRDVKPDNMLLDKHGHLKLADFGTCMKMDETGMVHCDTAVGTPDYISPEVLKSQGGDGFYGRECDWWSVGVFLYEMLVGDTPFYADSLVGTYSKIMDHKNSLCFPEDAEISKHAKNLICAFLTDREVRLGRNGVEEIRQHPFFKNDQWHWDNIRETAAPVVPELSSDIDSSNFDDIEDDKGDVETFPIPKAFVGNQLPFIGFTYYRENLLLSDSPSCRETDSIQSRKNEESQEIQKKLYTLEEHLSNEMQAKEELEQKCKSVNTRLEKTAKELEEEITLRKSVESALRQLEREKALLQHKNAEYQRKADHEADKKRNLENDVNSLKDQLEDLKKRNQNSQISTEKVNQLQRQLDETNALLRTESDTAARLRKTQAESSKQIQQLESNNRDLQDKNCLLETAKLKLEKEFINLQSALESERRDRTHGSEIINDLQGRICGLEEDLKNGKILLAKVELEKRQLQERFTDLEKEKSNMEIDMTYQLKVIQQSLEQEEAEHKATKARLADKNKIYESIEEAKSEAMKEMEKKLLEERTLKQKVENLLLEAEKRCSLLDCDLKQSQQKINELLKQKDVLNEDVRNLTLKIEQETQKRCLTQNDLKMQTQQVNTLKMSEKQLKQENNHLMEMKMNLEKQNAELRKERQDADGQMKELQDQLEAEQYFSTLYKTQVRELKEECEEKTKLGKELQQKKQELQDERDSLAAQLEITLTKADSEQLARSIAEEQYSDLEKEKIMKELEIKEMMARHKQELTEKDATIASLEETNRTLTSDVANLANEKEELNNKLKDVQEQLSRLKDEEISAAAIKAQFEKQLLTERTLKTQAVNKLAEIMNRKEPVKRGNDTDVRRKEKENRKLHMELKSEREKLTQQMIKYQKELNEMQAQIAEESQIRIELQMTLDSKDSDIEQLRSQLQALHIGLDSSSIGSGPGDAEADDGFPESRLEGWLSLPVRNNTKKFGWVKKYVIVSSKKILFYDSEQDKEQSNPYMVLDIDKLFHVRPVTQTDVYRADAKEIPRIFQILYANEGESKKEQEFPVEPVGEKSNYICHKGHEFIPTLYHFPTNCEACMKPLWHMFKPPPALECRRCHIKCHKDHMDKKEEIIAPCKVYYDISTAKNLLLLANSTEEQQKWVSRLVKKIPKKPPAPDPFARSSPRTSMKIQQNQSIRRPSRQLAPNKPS

System in one data set: not listed separately
As to the kind of experiment: Toxicity in BALB/c nude mouse xenografted with human MDA-MB-231 cells harboring Luc-mcherry assessed as reduction in body weight at 15 mg/kg, iv administered once a day for 45 days. The class given is organism-based. As to conditions: in vivo, 1080 h, time 45 day.
Regarding `C[C@@H](N)[C@H]1CC[C@H](C(=O)Nc2ccncc2)CC1` [Y-27632], the Activity result is listed as “Non-Toxic”.

A further data set deals with MDA-MB-231. As to the kind of experiment: Antiproliferative activity against human MDA-MB-231 cells assessed as suppression of cell growth incubated for 72 hrs by SRB assay. As to conditions: MDA-MB-231, 72 h. It is filed as functional, cell-based. (In general: Sulforhodamine B stains cellular protein and so reports cell mass.)
Usually pIC50 stands for the negative decadic logarithm of the IC50, by convention in mol/L. Turning to `COc1cccc2c1C(=O)c1c(O)c3c(c(O)c1C2=O)C[C@@](O)(C(=O)CO)C[C@@H]3O[C@H]1C[C@H](N)[C@H](O)[C@H](C)O1` [DOXORUBICIN HYDROCHLORIDE], the pIC50 is 6.00.

Another data set concerns SK-OV-3. As to the kind of experiment: Antiproliferative activity against human SK-OV-3 cells assessed as suppression of cell growth incubated for 72 hrs by SRB assay. It is filed as functional, cell-based. The following applies: SK-OV-3, 72 h.
As for `COc1cccc2c1C(=O)c1c(O)c3c(c(O)c1C2=O)C[C@@](O)(C(=O)CO)C[C@@H]3O[C@H]1C[C@H](N)[C@H](O)[C@H](C)O1` [DOXORUBICIN HYDROCHLORIDE], the pIC50 is 6.32.

The next data set has as its target Rho-associated protein kinase 2 (Homo sapiens, UniProt O75116). The data set can be described thus: Inhibition of N-terminal His10-StrepII tagged human ROCK2 catalytic domain (1 to 553 residues) expressed in Sf9 insect cells by HTRF assay.
Details: not given
(Time-resolved FRET reads energy transfer from a long-lived donor to a nearby acceptor.)
`CC(=O)N[C@@H]1C[C@H](n2c3ccccc3c3c4c(c5c6ccccc6[nH]c5c32)C(=O)NC4=O)O[C@@H](C)[C@@H]1O` gave a pIC50 of 5.65.

For `CO[C@@H]1[C@@H](O)[C@@H](O)[C@H]2O[C@]1(C)n1c3ccccc3c3c4c(c5c6ccccc6n2c5c31)C(=O)N[C@H]4O`, the pIC50 was less than 6.30.

`CC(=O)N[C@H]1C[C@H](n2c3ccccc3c3c4c(c5c6ccccc6[nH]c5c32)CNC4=O)O[C@@H](C)[C@@H]1O` had a pIC50 of 6.68.

The compound `CO[C@@H]1[C@@H](O)C[C@H]2O[C@]1(C)n1c3ccccc3c3c4c(c5c6ccccc6n2c5c31)C(=O)NC4` gave a pIC50 of 6.14.

Take `C[C@H]1O[C@@H]2C[C@](O)([C@H]1O)n1c3ccccc3c3c4c(c5c6cc(O)ccc6n2c5c31)C(=O)NC4`: the pIC50 was 6.92.

As for `COc1cccc2c1[nH]c1c3[nH]c4ccccc4c3c3c(c21)C(=O)NC3=O`, the pIC50 was less than 6.30.

For the compound `C[C@]12O[C@H](C[C@@H](O)[C@H]1O)n1c3ccccc3c3c4c(c5c6ccccc6n2c5c31)CNC4=O`, the pIC50 was 5.54.

The compound `CO[C@@H]1[C@H](N)C[C@H]2O[C@]1(C)n1c3ccccc3c3c4c(c5c6ccccc6n2c5c31)C(=O)NC4=O` showed a pIC50 of 6.44.

In turn, `O=C1NCc2c1c1c3ccccc3[nH]c1c1[nH]c3cc(O)ccc3c21` had a pIC50 of 6.70.

As for `CO[C@@H]1C(C)(O)O[C@@H]2C[C@@]1(OC)n1c3ccccc3c3c4c(c5c6ccccc6n2c5c31)C(=O)NC4` (stereo partly specified), the pIC50 is less than 6.30.

As to `COc1ccc2[nH]c3c4[nH]c5ccc(O)cc5c4c4c(c3c2c1)C(=O)NC4=O`, the pIC50 is 6.96.

Consider `COc1ccc2[nH]c3c4[nH]c5ccccc5c4c4c(c3c2c1)C(=O)NC4=O`, for which the negative logarithm of the IC50 (pIC50) is 7.00.

`COc1ccc2[nH]c3c4[nH]c5ccc(O)cc5c4c4c(c3c2c1)CNC4=O`: the pIC50 is 6.92.

On to `CN1Cc2c(c3c4ccccc4[nH]c3c3[nH]c4ccccc4c23)C1=O`, for which the pIC50 is 6.29.

Compound `COC(=O)[C@@]1(OC)C[C@H]2O[C@]1(C)n1c3ccccc3c3c4c(c5c6ccccc6n2c5c31)C(=O)NC4` gave a pIC50 of 6.48.

Compound `CC(=O)N[C@@H]1C[C@H](n2c3ccccc3c3c4c(c5c6ccccc6[nH]c5c32)CNC4=O)O[C@@H](C)[C@@H]1O` had a pIC50 of 5.57.

For `O=C1NCc2c1c1c3ccc(O)cc3[nH]c1c1[nH]c3ccccc3c21`, the pIC50 was 7.64.

In turn, `CC(=O)N[C@H]1C[C@H]2O[C@@](C)([C@@H]1O)n1c3ccccc3c3c4c(c5c6ccccc6n2c5c31)C(=O)NC4` showed a pIC50 of 7.22.

The values above are taken from ChEMBL document CHEMBL5385876, “Discovery of unglycosylated indolocarbazoles as ROCK2 isoform-selective inhibitors for the treatment of breast cancer metastasis” (Eur J Med Chem, 2023).
